Experimental data published in publication PMC12239475, “Bioprocessing and characterization of thermostable phytase from Aspergillus terreus, an endophyte of Catharanthus roseus, with a potential activity to hydrolyze phytic acid in wheat bran” (BMC Biotechnology, 2025).

System: T1, phytase from A. terreus
T1 construct: gene phyA; native, secreted; purified from solid-state culture on wheat bran (acetone, Sephadex G100, Sepharose 4B); 85 kDa subunit by SDS-PAGE
Assay: released inorganic phosphate, ammonium molybdate colorimetry at […] nm
Assay type: biochemical, Aspergillus terreus
Conditions: standard assay: potassium phosphate buffer pH 7.4, 40 °C, 15 min, table title misprinted as A. flavus GST

Nc1ncnc2c1ncn2[C@@H]1O[C@H](COP(=O)(O)OP(=O)(O)OP(=O)(O)O)[C@@H](O)[C@H]1O [ATP]
Km: 190 µM

O=P(O)(O)OC[C@H]1OC(O)(COP(=O)(O)O)[C@@H](O)[C@@H]1O (stereo partly drawn) [Fructose 1,6-diphosphate]
Km: 280 µM

O=P(O)(O)O[C@H]1[C@H](OP(=O)(O)O)[C@@H](OP(=O)(O)O)[C@H](OP(=O)(O)O)[C@@H](OP(=O)(O)O)[C@H]1OP(=O)(O)O [Phytic acid]
Km: 25 µM
